Laboratory results taken from patent publication US10736907B2, “Use of sugar-alcohols in tibolone compositions” (Mithra Pharmaceuticals S.A., priority 2016, dated 2020).
Where two headings read alike, the source gives them in different places.

Experiment: Tibolone impurities (A, B, C, total except C) in tablets by HPLC just after production and during storage (stability)
Format: physicochemical
Procedure: Tibolone tablets were manufactured by a conventional direct compression process. Briefly, the raw materials were weighed, sieved and homogenized. Following homogenization, the mixture was compressed into tablets. Just after production (i.e. at t=0), the tablets were analyzed for tibolone impurities by a chromatography (HPLC) method that allows a suitable separation between the peaks of impurities A, B and C (Tibolone degradation products described in the current European Pharmacopeia Monograph 1739) under the following conditions: • Equipment: HPLC system • Pre-column: Universal RP, EC 4/3 • Stationary phase: Nucleodur 100-3 C18ec Particulars' diameter: 3 μm • Length: 150 mm • Internal diameter: 4.6 mm • Mobile phase: • Solvent A: water for chromatography R • Solvent B: Acetonitrile for chromatography R • Gradient program: […]
The tablets were packed into PVC/Aluminium blisters and stored either 1) at a temperature of 25° C. and a relative humidity of 60% (long term stability conditions for Zone II), 2) at a temperature of 40° C. and a relative humidity of 75% (accelerated stability conditions), or 3) at ambient conditions (laboratory conditions, less than 25° C., no humidity control). After 1, 2, 3 and/or 6 months of storage (up to 18 months for batches #2 and #3), the tablets were analyzed for tibolone impurities.

Structure (SMILES): CCCCCCCCCCCCCCCC(=O)OC[C@H](O)[C@H]1OC(=O)C(O)=C1O [ascorbyl palmitate]
- stabilizing effect on tibolone in the tablets (in words): additional stabilizing effect

Structure (SMILES): O=C(O)CN(CCN(CC(=O)O)CC(=O)O)CC(=O)O [EDTA]
- stabilizing effect on tibolone in the tablets (in words) (excipient added to tibolone tablets): does not further stabilize
